Patent US6858638B2, “Substituted indazoles, compositions containing them, method of production and use” (Aventis Pharma S.A., priority 2002, dated 2005)

What was measured:
human FAK = biological target: T1, human FAK (Homo sapiens, UniProt Q05397); test: FAK autophosphorylation inhibition, time resolved fluorescence (HTRF) assay; type: biochemical; conditions: 10 μM (values without asterisk); for inhibition at 10 µM: read-out: FAK % inhib at 10 μM
T1 construct: The complete cDNA of human FAK; made in house; host or cells: baculovirus expression system (vector pFastBac HTc)
T1 sequence (Q05397 whole entry): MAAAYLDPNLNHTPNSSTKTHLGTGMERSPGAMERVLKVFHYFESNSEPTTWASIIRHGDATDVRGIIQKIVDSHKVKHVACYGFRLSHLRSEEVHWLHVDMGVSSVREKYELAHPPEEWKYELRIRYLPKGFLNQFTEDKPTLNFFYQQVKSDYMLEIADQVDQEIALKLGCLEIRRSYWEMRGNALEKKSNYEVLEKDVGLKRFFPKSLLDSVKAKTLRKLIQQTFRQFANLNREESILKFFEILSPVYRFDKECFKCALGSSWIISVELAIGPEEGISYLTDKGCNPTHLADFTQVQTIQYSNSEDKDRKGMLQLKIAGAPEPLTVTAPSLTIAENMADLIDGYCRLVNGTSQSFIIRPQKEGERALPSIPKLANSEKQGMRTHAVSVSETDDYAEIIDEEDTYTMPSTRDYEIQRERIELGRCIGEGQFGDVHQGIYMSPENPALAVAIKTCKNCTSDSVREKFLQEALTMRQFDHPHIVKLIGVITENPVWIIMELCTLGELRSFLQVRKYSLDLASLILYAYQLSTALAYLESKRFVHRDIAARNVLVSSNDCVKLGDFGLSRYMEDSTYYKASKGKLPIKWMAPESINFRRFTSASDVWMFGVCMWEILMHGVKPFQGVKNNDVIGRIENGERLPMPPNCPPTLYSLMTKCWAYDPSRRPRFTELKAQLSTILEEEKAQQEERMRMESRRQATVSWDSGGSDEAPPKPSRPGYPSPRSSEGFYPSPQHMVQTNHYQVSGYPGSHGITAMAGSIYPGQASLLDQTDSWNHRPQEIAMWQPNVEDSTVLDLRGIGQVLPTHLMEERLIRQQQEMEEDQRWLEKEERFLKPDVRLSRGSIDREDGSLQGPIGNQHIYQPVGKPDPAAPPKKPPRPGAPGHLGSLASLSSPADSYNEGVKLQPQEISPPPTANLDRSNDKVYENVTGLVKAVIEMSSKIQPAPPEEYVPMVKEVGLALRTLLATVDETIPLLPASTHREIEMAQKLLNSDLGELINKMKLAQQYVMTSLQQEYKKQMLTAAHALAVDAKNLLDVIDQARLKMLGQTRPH
Method in brief: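 Autophosphorylation was detected by europium-cryptate anti-pTyr and XL665 anti-His energy transfer, percent inhibition from the 665/620 ratio relative to no-compound wells. Enzyme: His-FAK full length, 6.6 µg/ml, incubated 1 h at 37 °C, pH 7.2, 15 µM ATP.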

human KDR enzyme = biological target: T2, human KDR enzyme (Homo sapiens, UniProt P35968); test: KDR substrate (PLCγ) phosphorylation, scintillation assay; type: biochemical; conditions: 10 μM; for inhibition at 10 µM: read-out: KDR % inhib at 10 μM
T2 construct: The cytoplasmic domain of the human KDR enzyme; GST; made in house; host or cells: SF21 insect cells (baculovirus)
T2 sequence (P35968 786-1356 limits assumed): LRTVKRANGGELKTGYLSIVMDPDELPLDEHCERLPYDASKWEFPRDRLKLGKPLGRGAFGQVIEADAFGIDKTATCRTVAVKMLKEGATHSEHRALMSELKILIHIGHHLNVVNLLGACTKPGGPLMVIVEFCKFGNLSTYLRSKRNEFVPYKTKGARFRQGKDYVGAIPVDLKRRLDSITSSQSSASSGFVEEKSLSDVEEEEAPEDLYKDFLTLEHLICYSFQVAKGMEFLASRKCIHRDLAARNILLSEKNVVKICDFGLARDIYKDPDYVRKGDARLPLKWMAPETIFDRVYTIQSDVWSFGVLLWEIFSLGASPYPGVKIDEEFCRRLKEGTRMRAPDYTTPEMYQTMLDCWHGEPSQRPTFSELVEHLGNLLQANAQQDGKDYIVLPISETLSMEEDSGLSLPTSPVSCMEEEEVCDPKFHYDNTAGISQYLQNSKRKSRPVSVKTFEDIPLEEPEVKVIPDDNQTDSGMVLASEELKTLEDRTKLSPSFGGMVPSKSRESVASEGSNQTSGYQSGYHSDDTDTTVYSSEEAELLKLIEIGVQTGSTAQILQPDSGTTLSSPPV
Method in brief: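 Values are percent inhibition relative to the compound-free control, read by scintillation counting of 33P incorporation after EDTA stop. Baculovirus/SF21-expressed GST-KDR cytoplasmic domain (100 ng) acted for 1 h at 37 °C in pH 7.2 MOPS kinase buffer. The substrate was GST-PLCγ SH2-SH3 (2 μg), added with γ33P-ATP and 2 μM unlabeled ATP.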

Aurora2 kinase = biological target: T3, Aurora2 kinase (Homo sapiens, UniProt O14965); test: Aurora2 kinase radioactivity scintillation assay using nickel chelate (NuMA substrate); type: biochemical; conditions: 10 μM; for inhibition at 10 µM: read-out: Aurora2 % inhib at 10 μM
T3 construct: A complete recombinant Aurora2 enzyme; His tag (N); made in house; host or cells: E. coli
T3 sequence (O14965 1-403): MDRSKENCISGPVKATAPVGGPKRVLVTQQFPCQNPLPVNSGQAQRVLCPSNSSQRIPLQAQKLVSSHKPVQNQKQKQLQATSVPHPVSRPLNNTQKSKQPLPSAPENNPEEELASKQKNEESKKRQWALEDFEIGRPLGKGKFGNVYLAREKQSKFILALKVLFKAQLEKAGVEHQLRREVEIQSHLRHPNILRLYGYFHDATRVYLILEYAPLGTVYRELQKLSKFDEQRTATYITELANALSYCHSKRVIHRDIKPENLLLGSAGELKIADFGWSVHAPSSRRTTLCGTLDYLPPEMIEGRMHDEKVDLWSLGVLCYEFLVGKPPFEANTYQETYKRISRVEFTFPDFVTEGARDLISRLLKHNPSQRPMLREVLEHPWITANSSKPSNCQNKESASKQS
Method in brief: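 Read-out is 33P incorporation into His-NuMA (Q1687-H2101, 0.5 μM) captured on nickel chelate, after 30 min at 37 °C with 0.02 μM His-Aurora2 and 1 μM ATP. Expressed as percentage inhibition of uncompounded control activity, background subtracted.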

c-Src protein = test: Src kinase phosphorylation of biotinylated cdc2 substrate, fluorescence (DELFIA); type: biochemical, human
Description: The inhibition of the Src kinase is evaluated by measuring the phosphorylation of the biotinylated cdc2 substrate (Pierce) detected by fluorescence (DELFIA) using an antiphosphotyrosine antibody labeled with Europium, in 96-well Wallac plates. The c-Src protein used is a recombinant human protein produced in Baculovirus, comprising the SH3 and SH2 and the catalytic domains. The enzyme, the substrate and the various concentrations of test compounds are placed in the well in a 50 mM Tris buffer containing 10 mM MgCl2. The reaction is initiated by adding 10 μM of ATP. After incubation for 60 minutes at 30° C., the reaction is stopped by adding 75 mM EDTA. 50 μl are taken from each well and transferred into a plate coated with streptavidin. After incubation for 30 minutes at 25° C., the wells are washed with a washing buffer (Wallac) and then the antiphosphotyrosine antibody (PY20-Europium [Perkin Elmer]) is added in a volume of 75 μl. The plate is incubated for 30 minutes at 25° C. and then an “Enhancer” solution (Wallac) is added before reading the fluorescence using a fluorimeter (Perkin Elmer). The background noise is evaluated in triplicate in wells containing the substrate and the antibody in the absence of enzyme. The activity of the enzyme is measured (in triplicate) in the wells containing all the reagents in the absence of compound. The inhibition of the Src activity is expressed as percentage inhibition of the activity of the control determined in the absence of compound. The compound PP2 (Calbiochem) is included at various concentrations in each experiment as an inhibition control.

[1] = biological target: T4, human IGF1R cytoplasmic domain (Homo sapiens, UniProt P08069); test: IGF1R autophosphorylation inhibition, time resolved fluorescence (HTRF) assay; type: biochemical; conditions: 10 μM
T4 construct: The human IGF1R cytoplasmic domain was cloned; made in house; host or cells: SF21 insect cells (baculovirus)
T4 sequence (P08069 960-1367 limits assumed): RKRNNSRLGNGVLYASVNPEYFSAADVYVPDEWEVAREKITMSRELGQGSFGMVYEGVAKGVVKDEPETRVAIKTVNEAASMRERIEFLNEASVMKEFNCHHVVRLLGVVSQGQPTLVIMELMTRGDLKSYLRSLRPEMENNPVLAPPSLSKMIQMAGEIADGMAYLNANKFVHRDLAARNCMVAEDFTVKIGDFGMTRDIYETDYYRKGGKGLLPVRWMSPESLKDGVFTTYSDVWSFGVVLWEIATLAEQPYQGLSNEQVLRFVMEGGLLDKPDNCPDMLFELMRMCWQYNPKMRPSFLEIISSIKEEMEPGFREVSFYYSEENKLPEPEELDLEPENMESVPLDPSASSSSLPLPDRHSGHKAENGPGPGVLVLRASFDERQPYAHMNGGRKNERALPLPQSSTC
Method in brief: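 GST-tagged human IGF1R cytoplasmic domain from SF21 cells incubated with compound in 50 mM Hepes pH 7.5, 5 mM MnCl2, 50 mM NaCl, […] ATP. Autophosphorylation detected by HTRF (Eu-K anti-phosphotyrosine, XL665 anti-GST) after EDTA/KF stop; percentage inhibition versus no-compound control.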

| Structure (SMILES) | inhibition at 10 µM (human FAK) | inhibition at 10 µM (human KDR enzyme) | inhibition at 10 µM (Aurora2 kinase) | SRC % inhib at 10 μM (c-Src protein) | FAK % inhib at 10 μM (human FAK; 10 µM) | KDR % inhib at 10 μM (human KDR enzyme) | Aurora2 % inhib at 10 μM (Aurora2 kinase) | IGF1R % inhib at 10 μM [1] | melting point |
| --- | --- | --- | --- | --- | --- | --- | --- | --- | --- |
| CS(=O)(=O)c1ccccc1S(=O)(=O)Nc1ccc2[nH]nc(Br)c2c1 [Example 38, N-(3-Bromo-1H-indazol-5-yl)-2-methylsulfonylbenzenesulfonamide] | 69% | 3% | 86% | 56% |  |  |  |  |  |
| CS(=O)(=O)c1ccccc1S(=O)(=O)Nc1ccc2[nH]nc(-c3cccs3)c2c1 [Example 50, 2-Methylsulfonyl-N-(3-thiophen-2-yl-1H-indazol-5-yl)benzenesulfonamide] |  |  |  |  | 99% | 80% | 91% | 63% | 246 °C |
| CS(=O)(=O)c1ccccc1S(=O)(=O)Nc1ccc2[nH]nc(-c3ccc([N+](=O)[O-])cc3)c2c1 [Example 66, N-[3-(4-Nitrophenyl)-1H-indazol-5-yl]-2-methylsulfonylbenzenesulfonamide] | 75% | 20% | 100% | 90% |  |  |  |  |  |
| CS(=O)(=O)c1ccccc1S(=O)(=O)Nc1ccc2[nH]nc(CCc3ccccc3)c2c1 [Example 90, 2-Methylsulfonyl-N-(3-phenethyl-1H-indazol-5-yl)benzenesulfonamide] | 89% | 45% | 100% |  |  |  |  |  | 192 °C |
| Nc1cccc(S(=O)(=O)Nc2ccc3[nH]nc(-c4ccccc4)c3c2)c1 [Example 98, 3-Amino-N-(3-phenyl-1H-indazol-5-yl)benzenesulfonamide] | 53% | 91% | 94% | 78% |  |  |  |  |  |
| O=S(=O)(Nc1ccc2[nH]nc(-c3ccccc3)c2c1)C1CCCCC1 [Example 99, N-(3-Phenyl-1H-indazol-5-yl)cyclohexanesulfonamide] | 44% | 46% | 79% |  |  |  |  |  | 160 °C |
| O=S(=O)(Nc1ccc2[nH]nc(-c3ccccc3)c2c1)c1cccc(C(F)(F)F)c1 [Example 130, 3-Trifluoromethyl-N-(3-phenyl-1H-indazol-5-yl)-benzenesulfonamide] | 26% | 94% | 69% | 18% |  |  |  |  |  |
| O=S(=O)(Nc1ccc2[nH]nc(-c3ccccc3)c2c1)c1cccc(Cl)c1 [Example 136, 3-Chloro-N-(3-phenyl-1H-indazol-5-yl)-benzenesulfonamide] | 59% | 98% | 85% | 62% |  |  |  |  |  |
| O=S(=O)(Nc1ccc2[nH]nc(-c3ccccc3)c2c1)c1cc(Cl)cc(Cl)c1 [Example 137, 3,5-Dichloro-N-(3-phenyl-1H-indazol-5-yl)-benzenesulfonamide] | 53% | 96% | 80% | 59% |  |  |  |  |  |
| O=S(=O)(Nc1ccc2[nH]nc(-c3ccccc3)c2c1)c1ccccc1Br [Example 139, 2-Bromo-N-(3-phenyl-1H-indazol-5-yl)-benzenesulfonamide] | 53% | 96% | 96% | 51% |  |  |  |  |  |
| O=S(=O)(Nc1ccc2[nH]nc(-c3ccccc3)c2c1)c1cccc(Br)c1 [Example 141, 3-Bromo-N-(3-phenyl-1H-indazol-5-yl)-benzenesulfonamide] | 38% | 97% | 80% | 43% |  |  |  |  |  |
| CCCCN(CCCC)c1cccc2c(S(=O)(=O)Nc3ccc4[nH]nc(-c5ccccc5)c4c3)cccc12 [Example 147, 5-Dibutylamino-N-(3-phenyl-1H-indazol-5-yl)naphthalene-1-sulfonamide] | 0% | 96% | 86% | 88% |  |  |  |  |  |
